Data reported in US20200291127A1, “ANTIBODIES AND METHODS OF USE THEREOF” (AbeXXa Biologics, Inc., priority 2020, published 2020).

Target: HLA-E*0103 (Homo sapiens, UniProt P13747)
Assay: HLA-E peptide refolding into monomer complexes
Format: biochemical

YLLPAIVHI
refolding of HLA-E*0103/peptide: successfully refold HLA-E*0103/peptide into stable monomer complexes
